{"source": "patent US20030232862A1", "about": "(priority 2002, published 2003)", "test_system": "PKG activity in HCT116 colon cancer cells", "test": "PKG activity assay in drug-treated HCT116 cells", "assay_type": "cell-based", "description": "To test the effect of cGMP-specific PDE inhibition on neoplasia containing the β-catenin mutation, HCT116 colon cancer cells were employed. HCT116 is known to contain the β-catenin mutation, but is known not to contain the APC mutation.\nThe same procedure is used to grow the HCT116 cells as is used in the SW480 procedure described above. In this experiment, only exisulind and controls were used."}
{"smiles": "CC1=C(CC(=O)O)c2cc(F)ccc2/C1=C\\c1ccc(S(C)(=O)=O)cc1", "note": "[Exisulind, 5-fluoro-2-methyl-1-(p-methylsulfonylbenzylidene)-3-indenylacetic acid]", "values": [{"measurement": "PKG activation relative to control", "value": "PKG activation occurred"}]}
